# Laboratory results published in US20060217340A1, “Methods and products for treating hypertension by modulation of TRPC3 channel activity” (University of Vermont and State Agricultural College, priority 2005, published 2006).
# Columns and labels:
# [1] = tested on: TRPC6; assay: Western analysis of TRPC6 protein expression in arteries; assay type: cell-based, rat; conditions: cerebral arterial SMCs
# Protocol: (§1) Western Analysis. Arterial segments were homogenized in lysis buffer (5 minutes, 4° C.) containing (in mM): 40 CAPS, 1 DL-Dithiothreitol (DTT), 10 EDTA, 15 MgCl2, 115 NaCl, 1 NaOrthovanadate, 1 NaF, 2.5 Urea, and 0.25% deoxychlorate, 10% glycerol, 1% NP-40, 0.2% SDS, and 1:50 mammalian protease inhibitor cocktail (Sigma, St. Louis, Mo., USA). Equal amounts of sample protein were separated on a 10% polyacrylamide gel and transferred to a nitrocellulose membrane. The membranes were exposed to a TRPC3 or TRPC6 polyclonal antibody (anti-rabbit 1:200 dilution, Alomone Labs, Jerusalem, Israel) and a […] (GAPDH) monoclonal antibody (anti-mouse, 1:1000 dilution, Chemicon Labs, Temecula, Calif., USA). Alexa-Fluor 680® goat anti-rabbit (Molecular Probes, Eugene, Oreg., USA) and IRDyeTM800 anti-mouse (Rockland Immunochemicals, Gilbertsville, Pa., USA) were used to fluorescently label the TRPC3 and GAPDH antibodies respectively. The density of signals specific for the TRPC3 and GAPDH bands in a given lane on a membrane were measured after scanning the membrane with an Odyssey® infared imaging system (Li-COR Biosciences, Lincoln, Nebr., USA). Quantified amounts were normalized to a total protein amount lane on the polyacrylamide gel.
# Oligodeoxynucleotide Sequences and Reverse Permeabilization. […]
# [2] = tested on: TRPC3; assay: Western analysis of TRPC3 protein expression in arteries; assay type: cell-based, rat
# Protocol: as §1
# Oligodeoxynucleotide Sequences and Reverse Permeabilization. TRPC6 sense and antisense oligodeoxynucleotides (ODN's) were designed as previously described (Welsh et al 2002 Circ Res 90, 248-250) and were as follows: sense, 5′-[…]-3′ (SEQ ID: 3) and 5′-GCACACGCAGCCTCTTCAC-3′ (SEQ ID: 4) antisense, 5′-[…]-3′ (SEQ ID: 5) and 5′-[…]-3′ (SEQ ID: 6). TRPC3 sense and antisense ODN's were designed based on the rat TRPC3 gene (Ohki et al 2000 J Biol Chem 275: 39055-39060) and are as follows: sense, 5′-[…]-3′ (SEQ ID: 7) and 5′-[…]-3′ (SEQ ID: 8); anti-sense, 5′-[…]-3′ (SEQ ID: 9) and 5′-[…]-3′ (SEQ ID: 10). The last five bases on the 5′ and 3′ end were phosphorothioated in order to limit ODN degradation. […]
substance,measurement,setting,value
"5′-GAGAACCATGAACTGGAATA-3′ (SEQ ID: 9) and 5′-ACGACCAACACGACCAGACA-3′ (SEQ ID: 10) (phosphorothioate ends, further chemistry not given here) [TRPC3 antisense, antisense ODNs based on the rat TRPC3 gene; last five bases on the 5′ and 3′ end phosphorothioated]",effect on the expression of TRPC6,[1],no effect
same,TRPC3 expression reduced (Western blots of arterial lysates),[2]; TRPC3 antisense compared with sense treated arteries,~60%
same,TRPC3 to GAPDH ratio less in antisense compared to sense treated samples,"[2]; after 3 days of organ culture, n=4 each",42.5±11.4%
